In the supplement of paper PMC11451515:

Key:
SEM cells [1] = experiment: cell viability relative to DMSO control; higher = less cytotoxic; conditions: 48 h
How it was run: (§1)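 Library compounds in DMSO were pin-dosed in an 11-point threefold series (47 μM to 0.79 nM) onto leukemia cells in 1536-well plates (5 μl). Plates held 500 cells/well of NOMO1 or SEM or 1000 cells/well of P12-Ichikawa, each adapted for at least four passages in each medium. Luminescence was read with CellTiter-Glo One after 48 h at 37°C. Viability means the per-plate percentage relative to DMSO wells, using cell-free wells as background.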

NOMO1 = experiment: AUC of viability dose-response curve (% viability x log10 dose units); higher = less sensitive; conditions: 48 h
How it was run: (§2)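 Library compounds in DMSO were applied for 48 h at 37°C at 11 threefold doses (47 μM to 0.79 nM) to medium-adapted leukemia cells in 1536-well plates holding 500 or 1000 cells/well. Luminescence from CellTiter-Glo One was normalised plate by plate against DMSO and cell-free wells. Area under the curve came from trapezoidal integration of a log-logistic fit, after scaling curves that rose above full viability and discarding those that failed quality control. The fit had four parameters and used log10 doses.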

P12-Ichikawa [2] = experiment: as above; conditions: 48 h
How it was run: as §2

SEM cells [3] = experiment: as above; conditions: 48 h
How it was run: as §2

P12-Ichikawa [4] = experiment: cell viability relative to DMSO control; higher = less cytotoxic; conditions: HPLM + 10% dialyzed FBS, 48 h
How it was run: as §1

CC1COC2=C3N1\C=C(C(O)=O)/C(=O)C3=CC(=C2N4CCN(C)CC4)F (stereo not drawn)
cell viability [%], SEM cells [1]
Conditions | HPLM + 10% dialyzed FBS | RPMI 5 mM glucose + 10% FBS
0.000781 µM | 119 | 111
0.00234 µM | 128 | 124
0.00702 µM | 122 | 125
0.0211 µM | 122 | 136
0.0632 µM | 121 | 142
0.19 µM | 125 | 118
0.569 µM | 128 | 117
1.71 µM | 119 | 122
5.12 µM | 118 | 117
15.4 µM | 120 | 106
46.1 µM | 119 | 115

AUC of viability dose-response curve
Conditions | NOMO1 | P12-Ichikawa [2] | SEM cells [3]
HPLM + 10% dialyzed FBS | 459 | 463 | 470
RPMI 5 mM glucose + 10% FBS | 443 | 452 | 453
RPMI 5 mM glucose + 10% dialyzed FBS | 446 | 438 | 463

CC[C@@]1([C@@H]2O[C@@H]([C@H]3O[C@@](O)(CO)[C@H](C)C[C@@H]3C)C[C@@H]2C)CC[C@H]([C@]2(C)CC[C@]3(C[C@H](O)[C@@H](C)[C@@H]([C@@H](C)[C@@H](OC)[C@H](C)C(=O)[O-])O3)O2)O1
AUC of viability dose-response curve
Conditions | NOMO1 | P12-Ichikawa [2] | SEM cells [3]
HPLM + 10% dialyzed FBS | 381 | 375 | 336
RPMI 5 mM glucose + 10% FBS | 409 | 350 | 324
RPMI 5 mM glucose + 10% dialyzed FBS | 393 | 340 | 343

CN(C)C/C=C/C(=O)Nc1cc2c(Nc3ccc(F)c(Cl)c3)ncnc2cc1O[C@H]1CCOC1
AUC of viability dose-response curve
Conditions | NOMO1 | P12-Ichikawa [2] | SEM cells [3]
HPLM + 10% dialyzed FBS | 339 | 337 | 320
RPMI 5 mM glucose + 10% FBS | 342 | 338 | 304
RPMI 5 mM glucose + 10% dialyzed FBS | 345 | 347 | 324

CC(=O)Nc1sc2c(c1-c1nc3ccccc3s1)CNC2
AUC of viability dose-response curve
Conditions | NOMO1 | P12-Ichikawa [2] | SEM cells [3]
HPLM + 10% dialyzed FBS | 386 | 463 | 437
RPMI 5 mM glucose + 10% FBS | 462 | 452 | 443
RPMI 5 mM glucose + 10% dialyzed FBS | 384 | 453 | 439

Clc1ccccc1CN1CCc2sccc2C1
Conditions | AUC of viability dose-response curve | cell viability [%]
NOMO1, HPLM + 10% dialyzed FBS | 323 | –
NOMO1, RPMI 5 mM glucose + 10% FBS | 315 | –
NOMO1, RPMI 5 mM glucose + 10% dialyzed FBS | 322 | –
P12-Ichikawa [2], HPLM + 10% dialyzed FBS | 348 | –
P12-Ichikawa [2], RPMI 5 mM glucose + 10% FBS | 340 | –
P12-Ichikawa [2], RPMI 5 mM glucose + 10% dialyzed FBS | 373 | –
P12-Ichikawa [4], 0.000781 µM | – | 120
P12-Ichikawa [4], 0.00234 µM | – | 121
P12-Ichikawa [4], 0.00702 µM | – | 117
P12-Ichikawa [4], 0.0211 µM | – | 130
P12-Ichikawa [4], 0.0632 µM | – | 129
P12-Ichikawa [4], 0.19 µM | – | 132
P12-Ichikawa [4], 0.569 µM | – | 129
P12-Ichikawa [4], 1.71 µM | – | 59.8
P12-Ichikawa [4], 5.12 µM | – | 15.5
P12-Ichikawa [4], 15.4 µM | – | 14.4
P12-Ichikawa [4], 46.1 µM | – | 16.7
SEM cells [3], HPLM + 10% dialyzed FBS | 453 | –
SEM cells [3], RPMI 5 mM glucose + 10% FBS | 459 | –
SEM cells [3], RPMI 5 mM glucose + 10% dialyzed FBS | 460 | –

SEM cells [1], RPMI 5 mM glucose + 10% FBS
Conditions | cell viability [%]
0.000781 µM | 94.3
0.00234 µM | 148
0.00702 µM | 120
0.0211 µM | 139
0.0632 µM | 133
0.19 µM | 152
0.569 µM | 135
1.71 µM | 141
5.12 µM | 144
15.4 µM | 140
46.1 µM | 33.3

COC(=O)/C=C/C(=O)OC
SEM cells [1], HPLM + 10% dialyzed FBS
Conditions | cell viability [%]
0.000781 µM | 118
0.00234 µM | 126
0.00702 µM | 106
0.0211 µM | 119
0.0632 µM | 135
0.19 µM | 135
0.569 µM | 126
1.71 µM | 124
5.12 µM | 60
15.4 µM | 43.8
46.1 µM | 43.3

AUC of viability dose-response curve
Conditions | NOMO1 | P12-Ichikawa [2] | SEM cells [3]
HPLM + 10% dialyzed FBS | 433 | 323 | 406
RPMI 5 mM glucose + 10% FBS | 402 | 368 | 354
RPMI 5 mM glucose + 10% dialyzed FBS | 413 | 352 | 376

Nc1cc(c(cc1S(=O)(N)=O)S(N)(=O)=O)C(/Cl)=C(/Cl)Cl
SEM cells [1], HPLM + 10% dialyzed FBS
Conditions | cell viability [%]
0.000781 µM | 110
0.00234 µM | 124
0.00702 µM | 140
0.0211 µM | 124
0.0632 µM | 128
0.19 µM | 120
0.569 µM | 132
1.71 µM | 126
5.12 µM | 86.4
15.4 µM | 10.4
46.1 µM | 9.94

AUC of viability dose-response curve
Conditions | NOMO1 | P12-Ichikawa [2] | SEM cells [3]
HPLM + 10% dialyzed FBS | 344 | 335 | 396
RPMI 5 mM glucose + 10% FBS | 399 | 396 | 363
RPMI 5 mM glucose + 10% dialyzed FBS | 406 | 390 | 379

Cl.Nc1ccn([C@@H]2O[C@H](CO)[C@@H](O)C2(F)F)c(=O)n1
AUC of viability dose-response curve
Conditions | NOMO1 | P12-Ichikawa [2] | SEM cells [3]
HPLM + 10% dialyzed FBS | 263 | 230 | 179
RPMI 5 mM glucose + 10% FBS | 243 | 223 | 175
RPMI 5 mM glucose + 10% dialyzed FBS | 248 | 212 | 141

C[C@@H](N)c1ccc(C(=O)Nc2ccnc3[nH]ccc23)cc1
cell viability [%], SEM cells [1]
Conditions | HPLM + 10% dialyzed FBS | RPMI 5 mM glucose + 10% FBS
0.000781 µM | 99.4 | 115
0.00234 µM | 115 | 135
0.00702 µM | 122 | 124
0.0211 µM | 121 | 155
0.0632 µM | 121 | 145
0.19 µM | 144 | 140
0.569 µM | 136 | 130
1.71 µM | 118 | 139
5.12 µM | 118 | 114
15.4 µM | 105 | 86.7
46.1 µM | 40.7 | 52.5

AUC of viability dose-response curve
Conditions | NOMO1 | P12-Ichikawa [2] | SEM cells [3]
HPLM + 10% dialyzed FBS | 462 | 471 | 454
RPMI 5 mM glucose + 10% FBS | 455 | 461 | 437
RPMI 5 mM glucose + 10% dialyzed FBS | 455 | 466 | 455

Nc1nc(F)nc2c1ncn2[C@@H]1O[C@H](CO)[C@@H](O)[C@H]1O
SEM cells [1], RPMI 5 mM glucose + 10% FBS
Conditions | cell viability [%]
0.000781 µM | 114
0.00234 µM | 119
0.00702 µM | 125
0.0211 µM | 141
0.0632 µM | 115
0.19 µM | 13.2
0.569 µM | 10.9
1.71 µM | 7.49
5.12 µM | 6.64
15.4 µM | 6.09
46.1 µM | 6.22

AUC of viability dose-response curve
Conditions | NOMO1 | P12-Ichikawa [2] | SEM cells [3]
HPLM + 10% dialyzed FBS | 283 | 293 | 228
RPMI 5 mM glucose + 10% FBS | 291 | 293 | 229
RPMI 5 mM glucose + 10% dialyzed FBS | 279 | 282 | 217

CC(=O)NC[C@H]1CN(c2ccc(N3CCOCC3)c(F)c2)C(=O)O1
AUC of viability dose-response curve
Conditions | NOMO1 | P12-Ichikawa [2] | SEM cells [3]
HPLM + 10% dialyzed FBS | 415 | 465 | 475
RPMI 5 mM glucose + 10% FBS | 473 | 449 | 476
RPMI 5 mM glucose + 10% dialyzed FBS | 450 | 429 | 475
